Reference: patent publication US11897851B2, “Heterocyclic GLP-1 agonists” (Gasherbrum Bio, Inc., priority 2021, dated 2024)

Biological target: T1, GLP-1 Receptor (Homo sapiens, UniProt P43220)
T1 construct: host or cells: HEK293/GLP1R/CRE-LUC (HEK293/CRE-Luc stably expressing the GLP-1 receptor)
Experiment: GLP-1R agonist cAMP stimulation assay (HEK293/GLP1R/CRE-LUC cells, Cisbio cAMP dynamic 2 kit);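 note: compounds tested in half-log serial dilution, cAMP detected with cAMP-d2 and anti-cAMP cryptate antibody reagents after 1 h at room temperature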
Format: cell-based
Settings: HEK293/CRE-Luc cell line stably expressing the GLP-1 Receptor; 1000 cells/well; 30 min at 37° C.; 0.5 mM IBMX, 0.1% BSA; read-out: GLP1R cAMP Stimulation DR: EC50

T1 sequence (P43220 24-463, species assumed): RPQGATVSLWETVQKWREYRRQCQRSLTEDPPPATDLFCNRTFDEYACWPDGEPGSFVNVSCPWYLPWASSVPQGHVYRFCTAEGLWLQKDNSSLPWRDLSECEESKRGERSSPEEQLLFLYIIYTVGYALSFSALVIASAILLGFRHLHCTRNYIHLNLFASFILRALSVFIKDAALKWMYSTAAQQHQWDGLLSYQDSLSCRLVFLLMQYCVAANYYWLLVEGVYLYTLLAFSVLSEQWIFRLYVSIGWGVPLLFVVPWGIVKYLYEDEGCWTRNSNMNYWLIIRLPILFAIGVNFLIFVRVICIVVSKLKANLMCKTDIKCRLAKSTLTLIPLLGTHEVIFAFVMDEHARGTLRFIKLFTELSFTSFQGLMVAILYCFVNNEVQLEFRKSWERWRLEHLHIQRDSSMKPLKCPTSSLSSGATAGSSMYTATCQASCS

Structure (SMILES): C/C(=C\c1cnc(CN2CCC(c3cccc(OCc4ccc(Cl)cc4F)n3)CC2)n1C)C(=O)O [Compound 110, (E)-3-(2-((4-(6-((4-chloro-2-fluorobenzyl)oxy)pyridin-2-yl)piperidin-1-yl)methyl)-1-methyl-1H-imidazol-5-yl)-2-methylacrylic acid]
- EC50: 5.5 nM

Structure (SMILES): CO[C@@H](C)Cn1c(/C=C/C(=O)O)cnc1CN1CCC(c2cccc3c2O[C@@](C)(c2ccc(Cl)cc2F)O3)CC1 [Compound 172a, (E)-3-(2-((4-((S)-2-(4-chloro-2-fluorophenyl)-2-methylbenzo[d][1,3]dioxol-4-yl)piperidin-1-yl)methyl)-1-((S)-2-methoxypropyl)-1H-imidazol-5-yl)acrylic acid]
- EC50: 0.048 nM

Structure (SMILES): C/C(=C\c1cnc(CN2CCC(c3cccc4c3O[C@@H](c3ccc(Cl)cc3)O4)CC2)n1C[C@@H]1CCO1)C(=O)O [Compound 133a, (E)-3-(2-((4-((S)-2-(4-chlorophenyl)benzo[d][1,3]dioxol-4-yl)piperidin-1-yl)methyl)-1-(((S)-oxetan-2-yl)methyl)-1H-imidazol-5-yl)-2-methylacrylic acid]
- EC50: 5.4 nM

Structure (SMILES): CC1(c2ccc(Cl)cc2F)Oc2cccc(C3CCN(Cc4ncc(/C=C/C(=O)O)n4CC4CCC4(F)F)CC3)c2O1 (stereo not drawn) [Compound 167, (E)-3-(2-((4-(2-(4-chloro-2-fluorophenyl)-2-methylbenzo[d][1,3]dioxol-4-yl)piperidin-1-yl)methyl)-1-((2,2-difluorocyclobutyl)methyl)-1H-imidazol-5-yl)acrylic acid]
- EC50: 0.065 nM

Structure (SMILES): CC1(c2ccc(Cl)cc2F)Oc2cccc(C3CCN(Cc4ncc(CCC(=O)O)n4CC4CCS4(=O)=O)CC3)c2O1 (stereo not drawn) [Compound 240, 3-(2-((4-(2-(4-chloro-2-fluorophenyl)-2-methylbenzo[d][1,3]dioxol-4-yl)piperidin-1-yl)methyl)-1-((1,1-dioxidothietan-2-yl)methyl)-1H-imidazol-5-yl)propanoic acid]
- EC50: 0.38 nM

Structure (SMILES): CC1(c2ccc(Cl)cc2F)Oc2cccc(C3CCN(Cc4nnc(/C=C/C(=O)O)n4C[C@@H]4CCO4)CC3)c2O1 (stereo partly drawn) [Compound 136a, (E)-3-(5-((4-(2-(4-chloro-2-fluorophenyl)-2-methylbenzo[d][1,3]dioxol-4-yl)piperidin-1-yl)methyl)-4-(((S)-oxetan-2-yl)methyl)-4H-1,2,4-triazol-3-yl)acrylic acid]
- EC50: 0.11 nM

Structure (SMILES): C/C(=C\c1nnc(CN2CCC(c3cccc(OCc4ccc(Cl)cc4F)n3)CC2)n1CCS(C)(=O)=O)C(=O)O [Compound 227, (E)-3-(5-((4-(6-((4-chloro-2-fluorobenzyl)oxy)pyridin-2-yl)piperidin-1-yl)methyl)-4-(2-(methylsulfonyl)ethyl)-4H-1,2,4-triazol-3-yl)-2-methylacrylic acid]
- EC50: 1.7 nM

Structure (SMILES): Cn1c(/C=C/C(=O)O)cnc1CN1CCC(c2cccc(OCc3ccc(Cl)cc3F)n2)CC1 [Compound 104, (E)-3-(2-((4-(6-((4-chloro-2-fluorobenzyl)oxy)pyridin-2-yl)piperidin-1-yl)methyl)-1-methyl-1H-imidazol-5-yl)acrylic acid]
- EC50: 3.45 nM

Structure (SMILES): Cc1cc(-c2noc(=O)[nH]2)cnc1CN1CCC(c2cccc3c2OC(C)(c2ccc(Cl)cc2F)O3)CC1 (stereo not drawn) [Compound 252, 3-(6-((4-(2-(4-chloro-2-fluorophenyl)-2-methylbenzo[d][1,3]dioxol-4-yl)piperidin-1-yl)methyl)-5-methylpyridin-3-yl)-1,2,4-oxadiazol-5(4H)-one]
- EC50: 11 nM

Structure (SMILES): CC1(c2ccc(Cl)cc2F)Oc2cccc(C3CCN(Cc4ncc(/C=C/C(=O)O)n4C4CC(O)C4)CC3)c2O1 (stereo not drawn) [Compound 178, (E)-3-(2-((4-(2-(4-chloro-2-fluorophenyl)-2-methylbenzo[d][1,3]dioxol-4-yl)piperidin-1-yl)methyl)-1-(3-hydroxycyclobutyl)-1H-imidazol-5-yl)acrylic acid]
- EC50: 1.2 nM

Structure (SMILES): CC1(c2ccc(Cl)cc2F)Oc2cccc(C3CCN(Cc4ncc(/C=C/C(=O)O)n4[C@@H]4CCOC4)CC3)c2O1 (stereo partly drawn) [Compound 163, (E)-3-(2-((4-(2-(4-chloro-2-fluorophenyl)-2-methylbenzo[d][1,3]dioxol-4-yl)piperidin-1-yl)methyl)-1-((R)-tetrahydrofuran-3-yl)-1H-imidazol-5-yl)acrylic acid]
- EC50: 0.13 nM

Structure (SMILES): COCCn1c(/C=C/C(=O)O)cnc1CN1CCC(c2cccc(OCc3ccc(Cl)cc3F)n2)CC1 [Compound 106, (E)-3-(2-((4-(6-((4-Chloro-2-fluorobenzyl)oxy)pyridin-2-yl)piperidin-1-yl)methyl)-1-(2-methoxyethyl)-1H-imidazol-5-yl)acrylic acid]
- EC50: 0.364 nM

Structure (SMILES): COCCn1c(Cc2noc(=O)[nH]2)cnc1CN1CCC(c2cccc3c2OC(C)(c2ccc(Cl)cc2F)O3)CC1 (stereo not drawn) [Compound 251, 3-((2-((4-(2-(4-chloro-2-fluorophenyl)-2-methylbenzo[d][1,3]dioxol-4-yl)piperidin-1-yl)methyl)-1-(2-methoxyethyl)-1H-imidazol-5-yl)methyl)-1,2,4-oxadiazol-5(4H)-one]
- EC50: 13 nM

Structure (SMILES): COCCn1c(C2CC2C(=O)O)cnc1CN1CCC(c2cccc(OCc3ccc(Cl)cc3F)n2)CC1 (stereo not drawn) [Compound 113]
- EC50: 34.9 nM

Structure (SMILES): COC(C)Cn1c(/C=C/C(=O)O)cnc1CN1CCC(c2cccc3c2OC(C)(c2ccc(Cl)cc2F)O3)CC1 (stereo not drawn) [Compound 159, (E)-3-(2-((4-(2-(4-chloro-2-fluorophenyl)-2-methylbenzo[d][1,3]dioxol-4-yl)piperidin-1-yl)methyl)-1-(2-methoxypropyl)-1H-imidazol-5-yl)acrylic acid]
- EC50: 0.051 nM

Structure (SMILES): O=C(O)/C=C/c1cn(Cc2ncco2)c(CN2CCC(c3cccc4c3OC[C@@H](c3ccc(Cl)cc3)O4)CC2)n1 [Compound 222a, (R,E)-3-(2-((4-(2-(4-chlorophenyl)-2,3-dihydrobenzo[b][1,4]dioxin-5-yl)piperidin-1-yl)methyl)-1-(oxazol-2-ylmethyl)-1H-imidazol-4-yl)acrylic acid]
- EC50: 6.9 nM

Structure (SMILES): COCCCn1c(/C=C/C(=O)O)cnc1CN1CCC(c2cccc3c2OC(C)(c2ccc(Cl)cc2F)O3)CC1 (stereo not drawn) [Compound 195, (E)-3-(2-((4-(2-(4-chloro-2-fluorophenyl)-2-methylbenzo[d][1,3]dioxol-4-yl)piperidin-1-yl)methyl)-1-(3-methoxypropyl)-1H-imidazol-5-yl)acrylic acid]
- EC50: 0.091 nM

Structure (SMILES): CS(=O)(=O)CCn1c(/C=C/C(=O)O)cnc1CN1CCC(c2cccc(OCc3ccc(Cl)cc3F)n2)CC1 [Compound 212, (E)-3-(2-((4-(6-((4-chloro-2-fluorobenzyl)oxy)pyridin-2-yl)piperidin-1-yl)methyl)-1-(2-(methylsulfonyl)ethyl)-1H-imidazol-5-yl)acrylic acid]
- EC50: 6.4 nM

Structure (SMILES): C[C@H](Cn1c(/C=C/C(=O)O)cnc1CN1CCC(c2cccc3c2O[C@@](C)(c2ccc(Cl)cc2F)O3)CC1)OC(F)F [Compound 169b, (E)-3-(2-((4-((S)-2-(4-chloro-2-fluorophenyl)-2-methylbenzo[d][1,3]dioxol-4-yl)piperidin-1-yl)methyl)-1-((R)-2-(difluoromethoxy)propyl)-1H-imidazol-5-yl)acrylic acid]
- EC50: 0.015 nM

Structure (SMILES): C[C@@H](c1ccccc1)n1c(/C=C/C(=O)O)cnc1CN1CCC(c2cccc3c2OC(C)(c2ccc(Cl)cc2F)O3)CC1 (stereo partly drawn) [Compound 152, (E)-3-(2-((4-(2-(4-chloro-2-fluorophenyl)-2-methylbenzo[d][1,3]dioxol-4-yl)piperidin-1-yl)methyl)-1-((S)-1-phenylethyl)-1H-imidazol-5-yl)acrylic acid]
- EC50: 0.53 nM

Structure (SMILES): C[C@]1(c2ccc(Cl)cc2F)Oc2cccc(C3CCN(Cc4ncc(/C=C/C(=O)O)n4CCOC(F)(F)F)CC3)c2O1 [Compound 145, (S,E)-3-(2-((4-(2-(4-chloro-2-fluorophenyl)-2-methylbenzo[d][1,3]dioxol-4-yl)piperidin-1-yl)methyl)-1-(2-(trifluoromethoxy)ethyl)-1H-imidazol-5-yl)acrylic acid]
- EC50: 0.16 nM

Structure (SMILES): CC1(C)C[C@@H](Cn2c(/C=C/C(=O)O)cnc2CN2CCC(c3cccc4c3OC(C)(c3ccc(Cl)cc3F)O4)CC2)CO1 (single isomer, unassigned) [Compound 171a]
- EC50: 10 nM

Structure (SMILES): C[C@]1(c2ccc(Cl)cc2F)Oc2cccc(C3CCN(Cc4ncc(/C=C/C(=O)O)n4C[C@@H]4CCO4)CC3)c2O1 [Compound 135a, (E)-3-(2-((4-((S)-2-(4-chloro-2-fluorophenyl)-2-methylbenzo[d][1,3]dioxol-4-yl)piperidin-1-yl)methyl)-1-(((S)-oxetan-2-yl)methyl)-1H-imidazol-5-yl)acrylic acid]
- EC50: 0.033 nM

Structure (SMILES): CC1(c2ccc(Cl)cc2F)Oc2cccc(C3CCN(Cc4ncc(-c5nnc(C(F)(F)F)[nH]5)cc4CCS(C)(=O)=O)CC3)c2O1 (stereo not drawn) [Compound 267, 2-({4-[2-(4-chloro-2-fluorophenyl)-2-methyl-2H-1,3-benzodioxol-4-yl]piperidin-1-yl}methyl)-3-(2-methanesulfonylethyl)-5-[5-(trifluoromethyl)-4H-1,2,4-triazol-3-yl]pyridine]
- EC50: 4.7 nM

Structure (SMILES): COc1cccc(Cn2c(CCC(=O)O)cnc2CN2CCC(c3cccc4c3OC(C)(c3ccc(Cl)cc3F)O4)CC2)c1 (stereo not drawn) [Compound 243, 3-(2-((4-(2-(4-chloro-2-fluorophenyl)-2-methylbenzo[d][1,3]dioxol-4-yl)piperidin-1-yl)methyl)-1-(3-methoxybenzyl)-1H-imidazol-5-yl)propanoic acid]
- EC50: 0.87 nM

Structure (SMILES): CC(Nc1ccc(CN2CCC(c3cccc(OCc4ccc(Cl)cc4F)n3)CC2)nc1)C(=O)O (stereo not drawn) [Compound 130, 2-((6-((4-(6-((4-chloro-2-fluorobenzyl)oxy)pyridin-2-yl)piperidin-1-yl)methyl)pyridin-3-yl)amino)propanoic acid]
- EC50: > 1000 nM

Structure (SMILES): Cc1ncc(Cn2c(/C=C/C(=O)O)cnc2CN2CCC(c3cccc4c3OC(C)(c3ccc(Cl)cc3F)O4)CC2)o1 (stereo not drawn) [Compound 202, (E)-3-(2-((4-(2-(4-chloro-2-fluorophenyl)-2-methylbenzo[d][1,3]dioxol-4-yl)piperidin-1-yl)methyl)-1-((2-methyloxazol-5-yl)methyl)-1H-imidazol-5-yl)acrylic acid]
- EC50: 0.26 nM
